The test concerns the target 2-acylglycerol O-acyltransferase 2 (Homo sapiens, UniProt Q3SYC2). The experiment in a line: Inhibitory Activity. How it is done:
Solutions of the compounds of the present invention in DMSO were each aliquoted into 0.2-μL portions in a 384-well polystyrene microplate produced by Corning Incorporated, and 5 μL of an enzyme solution prepared with an assay buffer (100 mmol/L phosphate buffer (pH 7.4) containing 2 mmol/L DTT) and 5 μL of a substrate solution (100 mmol/L phosphate buffer (pH 7.4), 30 μmol/L 2-Oleoylglycerol, 10 μmol/L Oleoyl-CoA) were added thereto, and the resultant was stirred and centrifuged, and incubated in a moist chamber at room temperature for 1 hour. After enzymatic reaction, 50 μL of a quenching solution (containing 0.2 μmol/L Diolein-d5, 0.4% formic acid, and 50% isopropanol) containing Internal Standard (IS) was added to terminate the reaction, and the resultant was sealed in a plate produced by Shimadzu GLC Ltd., and then stirred and centrifuged, and measurement was performed by using an electrospray ionization method with a RapidFire360 and Agilent 6550 Q-TOF mass spectrometer. Diolein as a reaction product (P) of 2-Oleoylglycerol as the substrate and an ammonium adduct ion of the IS were detected, and the peak intensity ratio, P/IS, was calculated from the peak heights to evaluate the inhibitory activity. Inhibitory activities with/without addition of enzyme were defined as Control (+)/Control (−), respectively, and the respective % inhibitions were defined as 0% inhibition and 100% inhibition. The inhibitory activity was calculated from formula below with TIBCO Spotfire (produced by TIBCO Software Inc.):Inhibitory activity (%)=[1−{Sample−Control(−)}/{Control(+)−Control(−)}]*100where Sample indicates a peak intensity ratio: P/IS, when the compound of the present invention was added.
Chain of 2-acylglycerol O-acyltransferase 2 (Q3SYC2 whole entry): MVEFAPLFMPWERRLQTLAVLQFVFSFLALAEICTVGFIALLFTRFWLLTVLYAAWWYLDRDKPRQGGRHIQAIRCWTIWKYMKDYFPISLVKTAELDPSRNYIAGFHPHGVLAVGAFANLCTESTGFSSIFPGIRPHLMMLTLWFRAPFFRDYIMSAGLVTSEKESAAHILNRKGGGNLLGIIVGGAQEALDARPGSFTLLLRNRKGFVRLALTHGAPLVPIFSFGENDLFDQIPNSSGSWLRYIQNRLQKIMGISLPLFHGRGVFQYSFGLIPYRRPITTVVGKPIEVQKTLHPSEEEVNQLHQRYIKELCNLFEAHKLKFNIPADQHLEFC
Broadly, the IC50 is the concentration needed to halve the response being measured. Read a high IC50 as weaker potency. In turn, `COc1ccc(-n2nc3c(c2NC(=O)CS(C)(=O)=O)C(=O)N[C@]2(CCc4cc(OCC(F)(F)F)ccc42)C3)cc1` [US11198695, Example I-268] had an IC50 of 26 nM.

`C#Cc1ccc(-n2nc3c(c2C(=O)NS(=O)(=O)C2CC2)C(=O)N[C@@]2(CCc4cc(OCC(F)(F)F)ccc42)C3)nc1` [US11198695, Example II-201] returned an IC50 of 12.1 nM.

On to `CS(=N)(=O)CC(=O)Nc1c2c(nn1-c1ccc(C(F)F)nn1)C[C@]1(CCc3cc(OCC(F)(F)F)ccc31)NC2=O` (stereo partly drawn) [US11198695, Example II-281], for which the IC50 was under 1 nM.

The values are drawn from BindingDB's records for patent US11198695 (SHIONOGI & CO., LTD., 2021).
